Reference: patent US6492416B1, “4,5-diaryl-3(2H)-furanone derivatives as cyclooxygenase-2 inhibitors” (Pacific Corporation, priority 1999, dated 2002)
In brackets after ≈: the same amount, converted by molar mass.

Columns and labels:
male SD rats = assay: Carrageenan-induced thermal hyperalgesia assay; type: in vivo, rat; settings: 3 hours
Protocol: Male SD rats weighing 170˜220 g were fasted but with free access to water for at leat 16 hours prior to testing. The rats were administered with a compound of this invention suspended in 20 ml 0.5% methylcellulose/0.025% Tween-20, or with vehicle only. Then the rats were given […] of 1% carrageenan in saline or […] saline only into the plantar surface of the left hindpaw by injection. Three hours later, the nociceptive responses to thermal stimuli were assessed as follows: Rats, which were placed in a transparent plastic chamber with a glass floor, were allowed to acclimate to their environment for 10 minutes prior to the testing. The withdrawal latency period in seconds was determined for the control and the compound treated group, and a percent inhibition in the withdrawal latency was calculated to estimate the analgesic effect of the compound [Pain 32, 77 (1988)]. In this study 6 animals were used for each group.

male SD rat = assay: Gastric safety studies (Ulcer Index); type: in vivo; settings: daily dose 30 mg/kg body weight oral for 7 days, mean of animals' scores
Protocol: Gastric safety for compounds of this invention was evaluated as follows [Otterness et al., Laboratory Models for Testing Nonsteroidal Anti-inflammatory Drugs in Nonsteroidal Anti-inflammatory Drugs; ed John Wiley & Sons pp 217-227 (1985); Wiley Interscience; New York]: A designated dose of a compound of this invention suspended in 1% methylcellulose solution was administered daily once for 7 days to a male SD rat by oral gavage. The animal was sacrificed and the inner wall of the stomach was examined visually 4 hours after the last administration (the 7th day administration). The gastric safety was assessed by the “Ulcer Index” as defined as the following scores: […]
Score 1: apparently normal stomach.
Score 2: one or more than one ulcer site of pin-point size only.
Score 3: erosions of 2 or fewer than 2, which may be accompanied by ulcers of pin-point size (an erosion is defied by any ulcerative lesion of any dimension greater than 1 mm).
Score 4: erosions more than 2, which may be accompanied by ulcers of pin-point size.
Score 5: erosions accompanied by hemorrhage.
In evaluating the gastric safety of a compound of this invention, usually 8 animals were used. The ulcer index for a compound was calculated by averaging of the ulcer index of each animal. The following Table 5 illustrates gastric safety of some COX-2 selective inhibitors of this invention.

COX-2 = target: T1, COX-2 (Mus musculus, UniProt Q05769); assay: Evaluation of COX-2 activity: PGE2 formation in aspirin-treated, LPS-stimulated mouse peritoneal macrophages; type: cell-based
T1 sequence (Q05769 18-604): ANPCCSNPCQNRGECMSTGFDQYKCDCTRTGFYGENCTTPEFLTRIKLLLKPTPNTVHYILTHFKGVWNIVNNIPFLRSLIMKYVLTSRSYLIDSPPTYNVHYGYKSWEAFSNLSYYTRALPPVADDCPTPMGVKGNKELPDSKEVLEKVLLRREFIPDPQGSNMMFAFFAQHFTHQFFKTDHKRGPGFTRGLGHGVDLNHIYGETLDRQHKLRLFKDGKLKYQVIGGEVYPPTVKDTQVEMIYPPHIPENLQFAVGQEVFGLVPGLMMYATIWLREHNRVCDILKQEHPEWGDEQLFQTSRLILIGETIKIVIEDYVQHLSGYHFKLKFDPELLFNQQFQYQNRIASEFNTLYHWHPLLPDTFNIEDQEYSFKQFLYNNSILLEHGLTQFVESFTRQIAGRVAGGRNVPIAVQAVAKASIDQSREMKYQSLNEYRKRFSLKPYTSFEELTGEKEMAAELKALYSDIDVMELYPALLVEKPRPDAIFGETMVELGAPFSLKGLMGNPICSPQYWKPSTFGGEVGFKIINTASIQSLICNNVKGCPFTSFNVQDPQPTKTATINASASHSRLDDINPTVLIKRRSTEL
Procedure, shortened: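 C57BL/6 peritoneal macrophages treated with 500 μM aspirin to block COX-1, adhered, then stimulated with 10 μg/ml LPS for 16 h at 37 °C to induce COX-2.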

ICR mice = assay: Acetic acid-induced writhing test; type: in vivo, mouse; settings: oral gavage
Protocol: ICR mice weighing 18˜22 g were maintained in a controlled lighting environment (12 hours on/12 hours off) and fasted overnight prior analgesic testing. Mice were administered with a compound of this invention dissolved in 10:10:80 ethanol/Tween 80/saline or vehicle only by oral gavage. The administered vehicle volume was controlled to be 10 ml/kg body weight. One hour later, the animals were treated with 0.2 ml of 1.2% acetic acid by peritoneal injection. 6 minutes later, the number of abdominal constrictions was counted for a 6 minutes period. The antinociceptive activity was expressed as the reduction in the number of abdominal constrictions, compared with that of the placebo group [J. Med. Chem. 39, 4942 (1996)]. ED50 of the mouse writhing test denotes a dose level at which the number of abdominal constrictions is half that of the placebo group. Ten animals per group were used for this study.

| SMILES | IC50, μg/ml COX-2 (COX-2) [µg/mL] | % Inhibition at 1.0 mg/kg body weight (rat hyperalgesia) (male SD rats) [%] | Ulcer Index (1˜5) (male SD rat) | ED50 (mouse writhing) (ICR mice) [mg/kg body weight] |
| --- | --- | --- | --- | --- |
| CC1(C)OC(c2ccc(S(C)(=O)=O)cc2)=C(c2cc(F)cc(F)c2)C1=O [Example 11, 4-(3,5-Difluorophenyl)-2,2-dimethyl-5-{4-(methylsulfonyl)phenyl}-3(2H)-furanone] | 0.05 (≈ 0.132 µM) |  | 1.8 ± 1.0 |  |
| CC1(C)OC(c2ccc(S(N)(=O)=O)cc2)=C(c2cccc(Cl)c2)C1=O [Example 126] | 0.014 (≈ 0.0371 µM) |  |  |  |
| CC1(C)OC(c2ccc(S(N)(=O)=O)cc2F)=C(c2ccc(F)cc2)C1=O [Example 334] | 0.03 (≈ 0.0791 µM) |  |  |  |

Now from value to compound, other results behind:

| IC50, μg/ml COX-2 (COX-2) [µg/mL] | SMILES | % Inhibition at 1.0 mg/kg body weight (rat hyperalgesia) (male SD rats) [%] | Ulcer Index (1˜5) (male SD rat) | ED50 (mouse writhing) (ICR mice) [mg/kg body weight] |
| --- | --- | --- | --- | --- |
| 0.02 (≈ 0.0555 µM) | CC1(C)OC(c2ccc(S(C)(=O)=O)cc2)=C(c2cccc(F)c2)C1=O [Example 4, 2,2-Dimethyl-4-(3-fluorophenyl)-5-{4-(methylsulfonyl)phenyl}-3(2H)-furanone] | 27 | 1.8 ± 0.7 | 8.3 |
| 0.0067 (≈ 0.0185 µM) | CC1(C)OC(c2ccc(S(N)(=O)=O)cc2)=C(c2cccc(F)c2)C1=O [Example 129, 5-{4-(aminosulfonyl)phenyl}-2,2-dimethyl-4-(3-fluorophenyl)-3(2H)-furanone] | 92 |  | 12.3 |
